Measured values as given in patent publication US20250026725A1, “HYDRATE CRYSTAL OF 5-CHLORO-4-(3-CHLORO-4- METHYLPHENYL)-1H-IMIDAZOLE-2-CARBONITRILE” (ISHIHARA SANGYO KAISHA, LTD., priority 2021, published 2025).
Converted amounts (≈) assume the structure as drawn. Read-outs that look alike come from different tables or passages of the source.

Tests used:
[1] = system: Malassezia pachydermatis (IFM56528); assay: Antifungal activity test, minimum fungicidal concentration (MFC100); assay type: cell-based; settings: 1 minute contact, culture 32° C. for 72 hours, read-out: Minimal fungicidal concentration (MFC100)
Experimental: Malassezia pachydermatis that had been cultured on a Sabouraud medium (1% peptone, 4% […], 1.5% agar) for 5 to 7 days was suspended in physiological saline to prepare so as to have an absorbance of 0.025 at 600 nm. The compound under test dissolved in DMSO was added thereto so as to have final concentrations of 200, 100, 50, and 25 ppm. 1 minute later, 10 μL of suspension and 10 mL of physiological saline were added to a syringe and stirred, and then the mixture was filtered and washed by connecting to a 37 mm quality monitor (manufactured by Pall Corporation) and washed. As such, membrane filters were permeated with the Sabouraud medium, culturing was performed at 32° C. for 72 hours, the presence or absence of the development of colonies was examined to determine a minimum fungicidal concentration (MFC100). A minimum fungicidal concentration (MFC100) for Malassezia pachydermatis (IFM56528) was determined in the same method as in Test Example 9 except that the hydrate crystal (Production Example 2) was used as the compound under test.

[2] = system: Microsporum canis (IFM63627); assay: Antifungal activity test, minimum fungicidal concentration (MFC100) on spores by treatment time; assay type: cell-based; settings: read-out: Minimal fungicidal concentration (MFC100)
Experimental: Microsporum canis was cultured on a 1/10 Sabouraud medium at 32° C. for 168 hours to form spores. Then, 10 mL of physiological saline solution (OTSUKA NORMAL SALINE; containing the equivalent of 9 g of sodium chloride in 1000 mL) was directly added over the medium, and the surface was scraped with a disposable loop (Type 1 (1 μL) to collect a spore suspension containing mycelia. The spore suspension containing mycelia was filtered through a cell strainer ((40 μm). Spores were collected from a filtrate by centrifugation (3500 rpm, 5 minutes), and washed twice with physiological saline to prepare a spore suspension (1×10^7 cells/mL). 10 μL of the spore suspension was inoculated into 90 μL of physiological saline solution to which the compound under test dissolved in DMSO was added so as to have a predetermined concentration. Every time a predetermined time lapsed, 10 μL of a test solution containing spores was taken out. Spores were collected from the test solution thus taken out by centrifugation (3500 rpm, 5 minutes), and washed twice with physiological saline to prepare 10 μL of spore suspension. […]
A minimum fungicidal concentration (MFC100) for Microsporum canis (IMF63627) was determined in the same method as in Test Example 8 except that the hydrate crystal (Production Example 2) was used as the compound under test.

[3] = system: Trichophyton rubrum (ATCCMYA4607); assay: as above; assay type: cell-based; settings: read-out: Minimal fungicidal concentration (MFC100)
Experimental: (§1) Trichophyton rubrum was cultured on a Sabouraud medium at 32° C. for 168 hours to form spores. Mycelia were peeled from a medium surface and collected into a tube, physiological saline solution (OTSUKA NORMAL SALINE; containing the equivalent of 9 g of sodium chloride in 1000 mL) was added thereto, and the entire mixture was mixed and dispersed with a disposable loop (Type 1 (1 μL)) to collect a spore suspension containing mycelia. The spore suspension containing mycelia was filtered through a cell strainer (+40 μm). Spores were collected from a filtrate by centrifugation (3500 rpm, 5 minutes), and washed twice with physiological saline to prepare a spore suspension (1×10^7 cells/mL). 10 μL of the spore suspension was inoculated into 90 μL of physiological saline solution to which the test compound dissolved in DMSO was added so as to have a predetermined concentration. Every time a predetermined time lapsed, 10 μL of a test solution containing spores was taken out. Spores were collected from the test solution thus taken out by centrifugation (3500 rpm, 5 minutes), and washed twice with physiological saline to prepare 10 μL of spore suspension. 10 μL of spore suspension was spotted on the Sabouraud medium and cultured at 32° C. for 72 hours, and then the presence or absence of the development of colonies was examined to determine a minimum fungicidal concentration (MFC100).
A minimum inhibitory concentration (MIC100) for Trichophyton rubrum (ATCCMYA4607) was determined in the same method as in Test Example 13 except that the hydrate crystal (Production Example 2) was used as the compound under test.

[4] = system: Trichophyton rubrum (ATCCMYA4607); assay: Antifungal activity test, minimum inhibitory concentration (MIC100); assay type: cell-based; settings: Sabouraud medium, 32° C. for 72 hours
Experimental: as §1, with “(1×10^6” for “(1×10^7”, “the Sabouraud medium” for “90 μL of physiological saline solution”, “Trichophyton rubrum” for “Every time a predetermined time lapsed, 10 μL of a test solution containing spores”, “was” for “was taken out. Spores were collected from the test solution thus taken out by centrifugation (3500 rpm, 5 minutes), and washed twice with physiological saline to prepare 10 μL of spore suspension. 10 μL of spore suspension was spotted on the Sabouraud medium and”, “inhibitory” for “fungicidal”, “(MIC100).” for “(MFC100).”
A minimum inhibitory concentration (MIC100) for Trichophyton rubrum (ATCCMYA4607) was determined in the same method as in Test Example 12 except that the hydrate crystal (Production Example 2) was used as the compound under test.

[5] = Moisture absorption test; assay type: physicochemical
Experimental: An anhydrous crystal sample was placed in a container (glass weighing bottle or paper bag) in such a manner that it was in direct contact with the damp. […] In addition, a sample for the hydrate crystal (Production Example 1) was also preserved at 60° C./80% RH, and the change in moisture content was observed through the change in weight or Karl Fischer moisture measurement.

[6] = 40° C./75% RH, weighing bottle, 14 days
[7] = 40° C./75% RH, weighing bottle, 28 days
[8] = 40° C./75% RH, weighing bottle, 28 days, listed as Anhydrate crystal

Compound `Cc1ccc(-c2nc(C#N)[nH]c2Cl)cc1Cl` [Anhydrous crystal, 5-chloro-4-(3-chloro-4-methylphenyl)-1H-imidazole-2-carbonitrile] has an MFC [1] of 50 µg/mL (≈ 198 µM), an MFC ([2]; treatment time 24 hours) of 50 µg/mL (≈ 198 µM) and an MFC ([2]; treatment time 96 hours) of 10 µg/mL (≈ 39.7 µM). For the same compound, the MFC ([3]; treatment time 1 hour) was 50 µg/mL (≈ 198 µM), the MFC ([3]; treatment time 48 hours) was 10 µg/mL (≈ 39.7 µM) and the MFC ([3]; treatment time 72 hours) was 5 µg/mL (≈ 19.8 µM). For the same compound, the MIC [4] was 5 µg/mL (≈ 19.8 µM), the Moisture content ([5]; 25° C./80% RH, paper bag, 0 days) was 0.1% and the Weight change ([5]; 25° C./80% RH, paper bag, 14 days) was 0.6%. For the same compound, the Weight change ([5]; 25° C./80% RH, paper bag, 28 days) was 2.2%, the Weight change ([5]; 25° C./80% RH, paper bag, 35 days) was 3.3% and the Weight change ([5]; 25° C./80% RH, paper bag, 43 days) was 4.2%. For the same compound, the Weight change ([5]; 25° C./80% RH, paper bag, 49 days) was 4.7%, the Weight change ([5]; 25° C./80% RH, paper bag, 49 days, listed as Anhydrate crystal) was 4.7% and the Moisture content ([5]; 40° C./75% RH, weighing bottle, 0 days) was 0.1%. It also gave a Weight change ([5]; 40° C./75% RH, weighing bottle, 7 days) of 3.5%, a Moisture content [5, 6] of 5.7% and a Weight change [5, 6] of 5.0%. For the same compound, the Weight change ([5]; 40° C./75% RH, weighing bottle, 21 days) was 6.4%, the Moisture content [5, 7] was 6.1% and the Weight change [5, 7] was 6.7%. It also gave a Moisture content [5, 8] of 6.1% and a Weight change [5, 8] of 6.7%.
